In patent US20220389003A1, “4-SUBSTITUTED INDOLE AND INDAZOLE SULFONAMIDO DERIVATIVES AS PARG INHIBITORS” (IDEAYA BIOSCIENCES, INC., priority 2019, published 2022):

Key:
PARG [1] = molecular target: T1, PARG (Homo sapiens, UniProt Q86W56); test: Inhibition of PARG cellular assay (PAR foci in HeLa cells after MMS); type: cell-based; design: endogenous in cells; host or cells: HeLa; settings: compound 1 h then MMS 1 h
Summary of the method: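 HeLa cells pretreated with compound for 1 h, then given MMS for a further 1 h, fixed and immunostained for PAR polymer. High-content imaging quantified nuclear PAR foci intensity (PAR Foci IC50) and percent cells with foci signal >1.3 (PAR % positive IC50).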

[2] = test system: HCC1806-XRCC1 KD (knock down) cells; test: Cellular viability assay (Cell Titer-Glo); type: cell-based; settings: 96 h, HCC1806-shXRCC1 cells, 4 days of incubation, read-out: PARGi cell viability
Summary of the method: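 XRCC1-knockdown HCC1806 cells seeded 24 h before dosing; 9-point 1:3 dilution from 30 μM top concentration, duplicates, 4-day incubation. Viability by CellTiter-Glo luminescence, normalized to DMSO wells as % of control; curves fit with 4-parameter inhibition model.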

PARG [3] = molecular target: T1, PARG; test: Inhibition of PARG enzymatic assay (TR-FRET enzymatic IC50 assay); type: biochemical; design: purchased Peak Proteins; settings: hPARG 250 pM, biotinylated-PARylated PARP substrate 30 nM
Summary of the method: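 Compound preincubated 1 h with 250 pM His-tagged hPARG, then 30 nM biotinylated PARylated hPARP1 substrate added for 10 min; buffer 50 mM Tris-HCl pH 7.4, EDTA/EGTA, 1 mM DTT, 23° C. TR-FRET read after 1 h with anti-His ULight antibody and streptavidin-europium; inhibition scaled between DMSO and no-enzyme controls.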

T1 sequence (Q86W56 whole entry): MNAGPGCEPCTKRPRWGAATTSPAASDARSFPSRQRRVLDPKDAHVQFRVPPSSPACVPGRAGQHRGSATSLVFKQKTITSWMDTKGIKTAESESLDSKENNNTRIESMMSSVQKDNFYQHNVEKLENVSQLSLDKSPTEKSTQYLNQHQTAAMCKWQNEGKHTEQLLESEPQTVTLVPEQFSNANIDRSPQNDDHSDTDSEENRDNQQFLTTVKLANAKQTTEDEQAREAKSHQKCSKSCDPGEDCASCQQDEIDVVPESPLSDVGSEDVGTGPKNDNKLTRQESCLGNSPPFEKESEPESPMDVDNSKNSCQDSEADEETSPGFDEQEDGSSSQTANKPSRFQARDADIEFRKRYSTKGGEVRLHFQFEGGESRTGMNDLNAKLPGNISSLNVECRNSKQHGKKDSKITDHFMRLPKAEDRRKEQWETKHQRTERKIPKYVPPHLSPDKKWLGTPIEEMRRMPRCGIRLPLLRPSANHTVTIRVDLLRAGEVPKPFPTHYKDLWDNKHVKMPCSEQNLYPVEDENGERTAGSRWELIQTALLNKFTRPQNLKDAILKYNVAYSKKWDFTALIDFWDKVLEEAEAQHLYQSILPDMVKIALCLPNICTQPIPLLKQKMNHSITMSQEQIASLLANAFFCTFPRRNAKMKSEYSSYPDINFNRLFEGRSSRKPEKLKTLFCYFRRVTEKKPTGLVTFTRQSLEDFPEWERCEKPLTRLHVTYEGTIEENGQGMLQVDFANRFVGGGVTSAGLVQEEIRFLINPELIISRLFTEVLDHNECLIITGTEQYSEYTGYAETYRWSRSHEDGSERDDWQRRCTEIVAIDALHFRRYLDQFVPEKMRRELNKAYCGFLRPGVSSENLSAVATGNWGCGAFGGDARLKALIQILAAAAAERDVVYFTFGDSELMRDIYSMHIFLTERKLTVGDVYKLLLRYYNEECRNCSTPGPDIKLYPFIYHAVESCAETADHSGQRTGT

N#CC1(NS(=O)(=O)c2cc(N3CCN(C(=O)C4CCCC4)CC3)c3cnn(-c4nnc(C(F)F)s4)c3c2)CC1 [Example 66, 1-[({1-[5-(difluoromethyl)(1,3,4-thiadiazol-2-yl)]-4-[4-(cyclopentylcarbonyl)piperazinyl]-1H-indazol-6-yl}sulfonyl)amino]cyclopropanecarbonitrile]
IC50 (PARG [1]): ≤ 100 nM | IC50 [2]: 1000 to 10000 nM | IC50 (PARG [3]): ≤ 100 nM

CN(CC(F)F)C(=O)N1CCN(c2cc(S(=O)(=O)NC3(C#N)CC3)cc3c2cnn3-c2nnc(C(F)F)s2)CC1 [Example 67, N-(2,2-difluoroethyl)[4-(1-[5-(difluoromethyl)(1,3,4-thiadiazol-2-yl)]-6-{[(cyanocyclopropyl)amino]sulfonyl}(1H-indazol-4-yl))piperazinyl]-N-methylcarboxamide]
IC50 (PARG [1]): ≤ 100 nM | IC50 [2]: < 1000 nM | IC50 (PARG [3]): ≤ 100 nM

CN1CC[C@H](C(=O)N2CCN(c3cc(S(=O)(=O)NC4(C#N)CC4)cc4c3cnn4-c3nnc(C(F)F)s3)CC2)C1 [Example 68, 1-{[(4-{4-[((3S)-1-methylpyrrolidin-3-yl)carbonyl]piperazinyl}-1-[5-(difluoromethyl)(1,3,4-thiadiazol-2-yl)]-1H-indazol-6-yl)sulfonyl]amino}cyclopropanecarbonitrile]
IC50 (PARG [1]): 1000 to 10000 nM | IC50 [2]: 1000 to 10000 nM | IC50 (PARG [3]): ≤ 100 nM

Cn1ccnc1N1CCN(c2cc(S(=O)(=O)NC3(C#N)CC3)cc3c2cnn3-c2nnc(C(F)F)s2)CC1 [Example 69, 1-[({1-[5-(difluoromethyl)(1,3,4-thiadiazol-2-yl)]-4-[4-(1-methylimidazol-2-yl)piperazinyl]-1H-indazol-6-yl}sulfonyl)amino]cyclopropanecarbonitrile]
IC50 (PARG [1]): ≤ 100 nM | IC50 [2]: < 1000 nM | IC50 (PARG [3]): ≤ 100 nM

CCCN(C)C(=O)N1CCN(c2cc(S(=O)(=O)NC3(C#N)CC3)cc3c2cnn3-c2nnc(C(F)F)s2)CC1 [Example 77, [4-(1-[5-(difluoromethyl)(1,3,4-thiadiazol-2-yl)]-6-{[(cyanocyclopropyl)amino]sulfonyl}(1H-indazol-4-yl))piperazinyl]-N-methyl-N-propylcarboxamide]
IC50 (PARG [1]): ≤ 100 nM | IC50 [2]: < 1000 nM | IC50 (PARG [3]): ≤ 100 nM

Cc1cccnc1N1CCN(c2cc(S(=O)(=O)NC3(C#N)CC3)cc3c2cnn3-c2nnc(C(F)F)s2)CC1 [Example 79, 1-[({1-[5-(difluoromethyl)(1,3,4-thiadiazol-2-yl)]-4-[4-(3-methyl(2-pyridyl))-piperazinyl]-1H-indazol-6-yl}sulfonyl)amino]cyclopropanecarbonitrile]
IC50 (PARG [1]): 100 to 300 nM | IC50 [2]: 1000 to 10000 nM | IC50 (PARG [3]): 300 to 1000 nM

N#CC1(NS(=O)(=O)c2cc(N3CCN(C(=O)C4CC4)CC3)c3cnn(-c4nnc(C(F)F)s4)c3c2)CC1 [Example 80, 1-[({1-[5-(difluoromethyl)(1,3,4-thiadiazol-2-yl)]-4-[4-(cyclopropylcarbonyl)piperazinyl]-1H-indazol-6-yl}sulfonyl)amino]cyclopropanecarbonitrile]
IC50 (PARG [1]): ≤ 100 nM | IC50 [2]: 1000 to 10000 nM | IC50 (PARG [3]): ≤ 100 nM

CC(C)C(=O)N1CCN(c2cc(S(=O)(=O)NC3(C#N)CC3)cc3c2cnn3-c2nnc(C(F)F)s2)C[C@H]1C [Example 82, 1-[({4-[(3R)-3-methyl-4-(2-methylpropanoyl)piperazinyl]-1-[5-(difluoromethyl) (1,3,4-thiadiazol-2-yl)]-1H-indazol-6-yl}sulfonyl)amino]cyclopropanecarbonitrile]
IC50 (PARG [1]): ≤ 100 nM | IC50 [2]: < 1000 nM | IC50 (PARG [3]): ≤ 100 nM

C[C@H]1CN(c2cc(S(=O)(=O)NC3(C#N)CC3)cc3c2cnn3-c2nnc(C(F)F)s2)CCN1C(=O)N(C)C [Example 83, [(2S)-4-(1-[5-(difluoromethyl)(1,3,4-thiadiazol-2-yl)]-6-{[(cyanocyclopropyl)amino]sulfonyl}(1H-indazol-4-yl))-2-methylpiperazinyl]-N,N-dimethylcarboxamide]
IC50 (PARG [1]): ≤ 100 nM | IC50 [2]: < 1000 nM | IC50 (PARG [3]): ≤ 100 nM

Cc1ccncc1N1CCN(c2cc(S(=O)(=O)NC3(C#N)CC3)cc3c2cnn3-c2nnc(C(F)F)s2)CC1 [Example 84, 1-[({1-[5-(difluoromethyl)(1,3,4-thiadiazol-2-yl)]-4-[4-(4-methyl(3-pyridyl))piperazinyl]-1H-indazol-6-yl}sulfonyl)amino]cyclopropanecarbonitrile]
IC50 (PARG [1]): 100 to 300 nM | IC50 [2]: 1000 to 10000 nM | IC50 (PARG [3]): 300 to 1000 nM

CN1CCC(C(=O)N2CCN(c3cc(S(=O)(=O)NC4(C#N)CC4)cc4c3cnn4-c3nnc(C(F)F)s3)CC2)CC1 [Example 85, 1-{[(1-[5-(difluoromethyl)(1,3,4-thiadiazol-2-yl)]-4-{4-[(1-methyl(4-piperidyl))-carbonyl]piperazinyl}-1H-indazol-6-yl)sulfonyl]amino}cyclopropanecarbonitrile]
IC50 (PARG [1]): 1000 to 10000 nM | IC50 [2]: 1000 to 10000 nM | IC50 (PARG [3]): ≤ 100 nM

CN(CC(F)(F)F)C(=O)N1CCN(c2cc(S(=O)(=O)NC3(C#N)CC3)cc3c2cnn3-c2nnc(C(F)F)s2)CC1 [Example 86, [4-(1-[5-(difluoromethyl)(1,3,4-thiadiazol-2-yl)]-6-{[(cyanocyclopropyl)amino]sulfonyl}(1H-indazol-4-yl))piperazinyl]-N-methyl-N-(2,2,2-trifluoroethyl)carboxamide]
IC50 (PARG [1]): ≤ 100 nM | IC50 [2]: < 1000 nM | IC50 (PARG [3]): ≤ 100 nM

N#CC1(NS(=O)(=O)c2cc(N3CCN(C(=O)c4ccccn4)CC3)c3cnn(-c4nnc(C(F)F)s4)c3c2)CC1 [Example 87, 1-[({1-[5-(difluoromethyl)(1,3,4-thiadiazol-2-yl)]-4-[4-(2-pyridylcarbonyl)piperazinyl]-1H-indazol-6-yl}sulfonyl)amino]cyclopropanecarbonitrile]
IC50 (PARG [1]): ≤ 100 nM | IC50 [2]: 1000 to 10000 nM | IC50 (PARG [3]): ≤ 100 nM

CC(C)C(=O)N1CCN(c2cc(S(=O)(=O)NC3(C#N)CC3)cc3c2cnn3-c2nnc(C(F)F)s2)C[C@@H]1C [Example 88, 1-[({4-[(3S)-3-methyl-4-(2-methylpropanoyl)piperazinyl]-1-[5-(difluoromethyl) (1,3,4-thiadiazol-2-yl)]-1H-indazol-6-yl}sulfonyl)amino]cyclopropanecarbonitrile]
IC50 (PARG [1]): ≤ 100 nM | IC50 [2]: 1000 to 10000 nM | IC50 (PARG [3]): ≤ 100 nM

CC(C)C(=O)N1[C@H](C)CN(c2cc(S(=O)(=O)NC3(C#N)CC3)cc3c2cnn3-c2nnc(C(F)F)s2)C[C@@H]1C [Example 89, 1-[({4-[cis-3,5-dimethyl-4-(2-methylpropanoyl)piperazinyl]-1-[5-(difluoromethyl)-(1,3,4-thiadiazol-2-yl)]-1H-indazol-6-yl}sulfonyl)amino]cyclopropanecarbonitrile]
IC50 (PARG [1]): ≤ 100 nM | IC50 [2]: 1000 to 10000 nM | IC50 (PARG [3]): ≤ 100 nM

CN1CCC[C@@H]1C(=O)N1CCN(c2cc(S(=O)(=O)NC3(C#N)CC3)cc3c2cnn3-c2nnc(C(F)F)s2)CC1 [Example 90, 1-{[(4-{4-[((2R)-1-methylpyrrolidin-2-yl)carbonyl]piperazinyl}-1-[5-(difluoromethyl)(1,3,4-thiadiazol-2-yl)]-1H-indazol-6-yl)sulfonyl]amino}cyclopropanecarbonitrile]
IC50 (PARG [1]): 1000 to 10000 nM | IC50 [2]: 1000 to 10000 nM | IC50 (PARG [3]): ≤ 100 nM

CC(C)C(=O)N1C2CC1CN(c1cc(S(=O)(=O)NC3(C#N)CC3)cc3c1cnn3-c1nnc(C(F)F)s1)C2 [Example 91, 1-[({1-[5-(difluoromethyl)(1,3,4-thiadiazol-2-yl)]-4-[6-(2-methylpropanoyl)-3,6-diazabicyclo[3.1.1]hept-3-yl]-1H-indazol-6-yl}sulfonyl)amino]cyclopropanecarbonitrile]
IC50 (PARG [1]): 1000 to 10000 nM | IC50 [2]: 20000 to 30000 nM | IC50 (PARG [3]): 1000 to 10000 nM

N#CC1(NS(=O)(=O)c2cc(N3CCN(c4ccccn4)CC3)c3cnn(-c4nnc(C(F)F)s4)c3c2)CC1 [Example 93, 1-[({1-[5-(difluoromethyl)(1,3,4-thiadiazol-2-yl)]-4-(4-(2-pyridyl)piperazinyl)-1H-indazol-6-yl}sulfonyl)amino]cyclopropanecarbonitrile]
IC50 (PARG [1]): 300 to 1000 nM | IC50 [2]: 1000 to 10000 nM | IC50 (PARG [3]): 1000 to 10000 nM

N#CC1(NS(=O)(=O)c2cc(N3CCN(c4cccnc4)CC3)c3cnn(-c4nnc(C(F)F)s4)c3c2)CC1 [Example 94, 1-[({1-[5-(difluoromethyl)(1,3,4-thiadiazol-2-yl)]-4-(4-(3-pyridyl)piperazinyl)-1H-indazol-6-yl}sulfonyl)amino]cyclopropanecarbonitrile]
IC50 (PARG [1]): 300 to 1000 nM | IC50 [2]: 1000 to 10000 nM | IC50 (PARG [3]): 300 to 1000 nM

N#CC1(NS(=O)(=O)c2cc(N3CCN(c4cccnn4)CC3)c3cnn(-c4nnc(C(F)F)s4)c3c2)CC1 [Example 95, 1-[({1-[5-(difluoromethyl)(1,3,4-thiadiazol-2-yl)]-4-(4-pyridazin-3-ylpiperazinyl)-1H-indazol-6-yl}sulfonyl)amino]cyclopropanecarbonitrile]
IC50 (PARG [1]): 100 to 300 nM | IC50 [2]: 1000 to 10000 nM | IC50 (PARG [3]): ≤ 100 nM

N#CC1(NS(=O)(=O)c2cc(N3CCN(C(=O)c4ccccc4)CC3)c3cnn(-c4nnc(C(F)F)s4)c3c2)CC1 [Example 96, 1-[({1-[5-(difluoromethyl)(1,3,4-thiadiazol-2-yl)]-4-[4-(phenylcarbonyl)piperazinyl]-1H-indazol-6-yl}sulfonyl)amino]cyclopropanecarbonitrile]
IC50 (PARG [1]): ≤ 100 nM | IC50 [2]: 1000 to 10000 nM | IC50 (PARG [3]): ≤ 100 nM
